Measured values reported in paper PMC8757871, “Bridging the Antimicrobial Activity of Two Lactoferricin Derivatives in E. coli and Lipid-Only Membranes” (Frontiers in Medical Technology, 2021).
Where two headings read alike, the source gives them in different places.

Assays:
[1] = peptide partitioning from tryptophan fluorescence; type: binding; details: for K (mole fraction partitioning coefficient) / RB ([P]B/[L]) / [P]W (peptide concentration in the water phase): Trp emission band analysis, after 1 h incubation, HBS pH 7.4, 37°C
Method: All hydrated samples were equilibrated for 1 h at 40°C followed by 5 freeze-and-thaw cycles using liquid N2 and intermittent vortex-mixing. Large unilamellar vesicles (LUVs) were obtained by 31 extrusions with a handheld mini extruder (Avanti Polar Lipids, Alabaster, AL) using a 100 nm pore diameter polycarbonate filter. Vesicle size and polydispersity were determined via DLS using a Zetasizer NANO ZSP (Malvern Panalytical, Malvern, UK). ANTS/DPX-containing vesicles were separated from free ANTS/DPX by exclusion chromatography using a column filled with SephadexTM G-75 (Amersham Biosciences, Little Chalfont, UK) fine gel swollen in iso-osmotic HBS. Phospholipid concentrations for all samples were determined by phosphate analysis.
Fluorescence emission from Trp, present in both peptides, was measured with the Cary Eclipse Fluorescence Spectrophotometer, setting the excitation wavelength to λ= 280 nm, which corresponds to the maximum intensity of the Trp absorption/excitation band. Intensities of exciting and emitting light were adjusted by setting the slit widths of both incident and outgoing beam to 5 or 10 nm, depending on the emission intensity, in order to optimize the signal-to-noise ratio. Emission spectra were background-subtracted to remove contributions originating from the instrument's baseline and scattered light from vesicles. All samples were measured in HBS at 37°C using a quartz cuvette, with a magnetic stirrer to prevent sample sedimentation in the case of aggregation. LUVs ([L] = 100 μM) were mixed with peptides ([P] = 2 and 4 μM), recording fluorescence spectra at various post-mixing time intervals ranging from 0.5 to 60 min. Peptide solutions were measured at concentrations of 2, 3, and 4 μM in order to calibrate their intensity dependence in buffer.
The fluorescence emission band was fitted with the log-normal-like function ([32], [33]) where λmax and I0 are, respectively, wavelength and intensity of the emission peak; Γ is the full-width-at-half-maximum (FWHM) of the band; α is a skewness parameter (fixed at an optimum values 1.36 after testing); and y = α/(α^2 − 1). Spectra from mixtures of LUVs and peptides were analyzed with a linear combination of two independent bands I^W and I^B, referring to AMPs in bulk (W) and partitioned into the lipid bilayer (B). λ^W and Γ^W were fixed to the reference values obtained by analyzing spectra from pure AMPs. Instead, I0W , I0B , λ^B, and Γ^B were adjustable parameters. The so obtained set of I0W values was converted to the concentration of dissociated peptides [P]W and further analyzed for peptide partitioning as detailed in section 2.3.1.
Following a previously reported thermodynamic formalism for the partitioning of peptides into lipid bilayers ([37]), based on the free energy of transfer of molecules from water into octanol ([38]), we define the mole fraction partitioning coefficient, K, as […]
(3) K=[P]B/([P]B+[L])/[P]W/([P]W+[W])≃[P]B[W]/[P]W[L], where [P]B is the molar concentration of peptides partitioned into the lipid phase; [P]W is the peptide concentration in the water phase; and [L] and [W] are, respectively, the molar concentrations of lipids and bulk water (55.5 M at 25°C and 55.3 M at 37°C). The approximation for K (Equation 3) is obtained applying [W] ≫ [PW] and [L] ≫ [PB] (similarly, the concentration of ions in water, i.e., buffer solutions, is negligible compared to [W]). By definition, the total concentration of peptides is [P] = [P]W + [P]B, thus leading to […]
(4) [P]=RB[W]/K︸[P]W+RB[L]︸[P]B=RB([W]/K+[L]),

E. coli K12 5K = type: cell-based, Escherichia coli; details: MIC = IC99.9, 2 h incubation with AMP in PBS at 37°C, then growth in LB about 20 h
Method: Colonies of E. coli K12 5K (courtesy of Günther Koraimann, University of Graz) were grown in LB-agar plates at 37°C. Overnight cultures (ONCs) were prepared by inoculating a single colony in 3 ml LB-medium in sterile polypropylene conical tubes (15 ml), enabling bacterial growth under aerobic conditions for 12−16 h in a shaking incubator at 37°C. Main cultures were prepared by suspending an aliquot of the ONCs in 10 ml LB-medium in sterile polypropylene conical tubes (50 ml) and harvested in the middle of the exponential growth phase. Bacteria were then immediately washed twice and re-suspended in nutrient-free and isotonic phosphate-buffered saline (PBS) solution (phosphate buffer 20 mM, NaCl 130 mM) at pH 7.4. Bacterial concentration was measured via turbidity measurements. The optical density at λ = 600 nm (OD600) was acquired with the spectrophotometer Thermo Spectronic Genesys 20 (Thermo Fisher Scientific, Waltham, MA), where OD600 = 1 corresponds approximately to 8 ×10^8 CFU/ml (where CFU is colony forming units).
The antimicrobial activity of the AMPs on E. coli was tested using a modified susceptibility microdilution assay ([30]) in the bacterial concentration range of 5 × 10^5 to 10^9 CFU/ml. Bacterial suspensions were incubated at a given AMP concentration for 2 h at 37°C (control samples were incubated in buffer only). Then, cell growth was monitored upon addition of double concentrated LB-medium for about 20 h using a Bioscreen C MBR (Oy Growth Curves Ab, Helsinki, Finland).
This allowed us to quantify the number density of surviving bacteria from the onset of the exponential growth via the relation Δtexp = a + blog(ncell), where a and b were obtained from a calibration curve in absence of AMPs (Supplementary Figure 1B). Then, the inhibited bacterial fraction IF=1-ncell([P])/ncell0 was calculated for different values of peptide concentration, [P], and of bacterial number density of the control sample, ncell0 . Following the so-called “equi-activity” analysis ([27], [31]), we further interpolated IF using a Gompertz function, which enabled us to derive inhibitory peptide concentrations ICx, where x is the corresponding inhibited bacterial fraction (Supplementary Figure 1C). By convention, the standard MIC is defined at inhibition levels of 99.9%, i.e., IC99.9 ≡ MIC. Additional control experiments were performed in order to test whether DMSO and acetic acid, used in buffer solutions of both peptides (see above), affect bacterial growth. In particular, the microdilution assays were repeated with LF11-215 dissolved in pure PBS, yielding equivalently delayed onsets of bacterial growth.

[2] = POPE/POPG LUVs [L] = 100 μM, [P] = 2 μM
[3] = POPE/POPG LUVs [L] = 100 μM, [P] = 4 μM
[4] = POPE/POPG/TOCL LUVs [L] = 100 μM, [P] = 2 μM
[5] = POPE/POPG/TOCL LUVs [L] = 100 μM, [P] = 4 μM
[6] = POPG LUVs [L] = 100 μM, [P] = 2 μM
[7] = POPG LUVs [L] = 100 μM, [P] = 4 μM

| Substance | K (mole fraction partitioning coefficient) [1, 2] | RB ([P]B/[L]) [1, 2] | [P]W (peptide concentration in the water phase) [1, 2] [µM] | K (mole fraction partitioning coefficient) [1, 3] | RB ([P]B/[L]) [1, 3] | [P]W (peptide concentration in the water phase) [1, 3] [µM] | K (mole fraction partitioning coefficient) [1, 4] | RB ([P]B/[L]) [1, 4] | [P]W (peptide concentration in the water phase) [1, 4] [µM] | K (mole fraction partitioning coefficient) [1, 5] | RB ([P]B/[L]) [1, 5] | [P]W (peptide concentration in the water phase) [1, 5] [µM] | K (mole fraction partitioning coefficient) [1, 6] | RB ([P]B/[L]) [1, 6] | [P]W (peptide concentration in the water phase) [1, 6] [µM] | K (mole fraction partitioning coefficient) [1, 7] | RB ([P]B/[L]) [1, 7] | [P]W (peptide concentration in the water phase) [1, 7] [µM] | MIC (E. coli K12 5K; ncell = 10^6 CFU/ml) [µM] | MIC (E. coli K12 5K; ncell = 10^9 CFU/ml) [µM] | other results |
| --- | --- | --- | --- | --- | --- | --- | --- | --- | --- | --- | --- | --- | --- | --- | --- | --- | --- | --- | --- | --- | --- |
| H-PFFWRIRIRR-NH2 [LF11-324, H-PFFWRIRIRR-NH2] | 67 ± 4 ×10^4 | 11.0 ± 0.3 ×10^−3 | 0.90 ± 0.02 | 47 ± 3 ×10^4 | 18.4 ± 0.6 ×10^−3 | 2.16 ± 0.06 | 63 ± 4 ×10^4 | 10.6 ± 0.3 ×10^−3 | 0.95 ± 0.03 | 111 ± 5 ×10^4 | 26.7 ± 0.4 ×10^−3 | 1.33 ± 0.04 | 61 ± 4 ×10^4 | 10.5 ± 0.3 ×10^−3 | 0.95 ± 0.03 | 20 ± 20 ×10^4 | 10.7 ± 0.9 ×10^−3 | 2.93 ± 0.09 | 11.1 ± 0.6 | 57 ± 2 | – |
| H-FWRIRIRR-NH2 [LF11-215, H-FWRIRIRR-NH2] | 70 ± 4 ×10^4 | 11.2 ± 0.3 ×10^−3 | 0.88 ± 0.03 | 43 ± 3 ×10^4 | 17.5 ± 0.7 ×10^−3 | 2.25 ± 0.07 | 82 ± 4 ×10^4 | 11.9 ± 0.2 ×10^−3 | 0.81 ± 0.02 | 139 ± 6 ×10^4 | 28.6 ± 0.3 ×10^−3 | 1.14 ± 0.03 | 161 ± 6 ×10^4 | 14.9 ± 0.3 ×10^−3 | 0.513 ± 0.015 | 217 ± 8 ×10^4 | 31.9 ± 0.4 ×10^−3 | 0.81 ± 0.04 | 13.7 ± 0.4 | 158 ± 2 | membrane partitioning, times higher than for LF11-324 ([1]; POPE/POPG/TOCL lipid mixtures): ~ 1.3 times |
